For one assay, the system named is Zucchini plants. Briefly: Peroxydasic activity in treated zucchini plants. The assay is classed as in vivo. The conditions noted are these: for Peroxydasic activity / Percent of peroxydasic activity relative to the product: zucchini plants aged 3 weeks, product 3.5 mg/L; for Percent of peroxydasic activity relative to the product: product 6 = 100%; for elicitor activity: zucchini plants, comparison in words. The text has this:
(§1) a) Measurement of the Peroxydasic Acttivity (Enzyme Endogenous to Plants)
(§2) Given the primordial role of the peroxydases in the resistance of plants, we have used the peroxydasic activity as a marker of the resistance following treatments by elicitors.
(§3) So as to measure the peroxydasic activities, leaves are crushed in a citrate-monohydrogeno-phosphate-disodium buffer. The extract is then placed in gaiacol and oxygenated water. A rapid reaction takes place: the gaiacol is transformed into tetragaiacol. The appearance of tetragaiacol in the medium permits us to calculate the peroxydasic activity.
(§4) Measurements are carried out in this same buffer by using the gaiacol as substrate. The results are expressed in ΔDO/mn/g of fresh material.
(§5) All the plants tested are young plants obtained from seed or by slipping. Pulverization is effected of the formulations obtained from oligopeptides. These formulations contain various wetting or penetrating agents capable of carrying the active material (oligopeptides) to the cells.
Zucchini plants aged 3 weeks have been treated with oligopeptides.

In a further assay the test system is tobacco plants. Conditions: 10 mM; cited from earlier work.
Assay [1] deals with Grape plants. The assay can be described thus: Peroxydasic activity in treated grape plants. Conditions: grape plants aged 3 weeks. The assay is classed as in vivo.
Text: as §1, §2, §3, §4, §5
(§6) Grape plants aged 3 weeks have been treated with oligopeptides. The results obtained are assembled in Tables II, III (Sheet 1/2).

The subject of assay [2] is Grape plants. Briefly: Chitinasic activity in treated grape plants. Conditions: grape plants aged 3 weeks. The assay is classed as in vivo. On the procedure: b) Measurement of the Chitinasic Activity
So as to verify that the mechanisms of resistance are triggered, we have also measured an enzymatic activity appearing in the situations of resistance: the chitinasic activity (enzyme synthesis upon attack of the parasites, which degrades chitin, constituting the walls of the phytopathogenic mushrooms).
Colormetric reaction used: there is used an acetate buffer:
Solution of chitin+enzymatic extract+acetate buffer qsp 0.5 ml (blue at 2 mg/ml) crude 50 mM-(pH5) (100 microliters)
incubation for 30 minutes at 37° C., and under continuous agitation.
the reaction is stopped by addition of a solution of HCL 1N
colormetric or spectrophotometric measurement at 550 nm
The chitinasic activity is expressed as ΔDO/mn/g of fresh material.
as §5, §6

“And” between values parts separate entries of the source, which are not always exact repeats. Identical values can stand only once.

Here are results for 14 molecules from patent US20060148710A1, “Oligopeptides, composition and use thereof as elicitors of the natural defences of plants” (DE Sangosse SA, priority 2003, published 2006).

With H-Ala6-Ala-OH [Product 12], in the assay on Zucchini plants, the Peroxydasic activity was 175 ΔDO/min/aMF; the “Percent of peroxydasic activity relative to the product” value is 50% and 50.28%.

As to H-Ala3-Ala-ol [Product 9], in the assay on Zucchini plants, the Peroxydasic activity is reported as 112 ΔDO/min/aMF and the “Percent of peroxydasic activity relative to the product” value was 32.18%.

Regarding `C[C@H](N)C(=O)O` [Alanine, reference compound], in the assay on Zucchini plants, the Peroxydasic activity is given as 65.78 ΔDO/min/aMF and the “Percent of peroxydasic activity relative to the product” value came to 18.9%.

For `CC(N)CC(=O)O` (stereo not drawn) [β-aminobutyric acid], the “capacity to trigger the ARS” value in the assay on tobacco plants is reported as “active”.

As to `CC(C)(N)C(=O)O` [Aib, α-aminoisobutyric acid, reference compound], in the assay on Zucchini plants, the Peroxydasic activity is listed as 53.1 ΔDO/min/aMF and the “Percent of peroxydasic activity relative to the product” value was 15.26%.

Consider `CC(N)CO` (centres unmarked) [Alininol, Alaninol, reference compound], for which, in the assay with Zucchini plants, the Peroxydasic activity was 69.46 ΔDO/min/aMF, the “Percent of peroxydasic activity relative to the product” value amounted to 19.96% and the elicitor activity entry is reported as “most active of the residues tested”.

H-Ala2-Ala-ol [Product 8]: in the assay on Zucchini plants, the Peroxydasic activity is listed as 94.6 ΔDO/min/aMF and the “Percent of peroxydasic activity relative to the product” value worked out at 27.18%.

As for `CCC(N)C(=O)O` (stereo not drawn) [α-aminobutyric acid], in the assay on tobacco plants, the “capacity to trigger the ARS” value was “less active”.

With H-Ala1-Ala-ol [Product 7], in the assay on Zucchini plants, the Peroxydasic activity is recorded as 99.16 ΔDO/min/aMF and the “Percent of peroxydasic activity relative to the product” value is 28.49%.

Consider H-Alan-Ala-OH [Product 13], for which, in the assay on Grape plants [1], the “Percent of peroxydasic activity relative to the most active product” value was 59.49% and the Peroxydasic activity was 136.6 ΔDO/mn/g of fresh material. Besides, in the assay with Grape plants [2], the Chitinasic activity is reported as 65.3 ΔDO/mn/g of fresh material and the “Percent of chitinasic activity relative to the most active product” value is listed as 100%.

For H-Alan-Ala-ol [Product 6], in the assay on Zucchini plants, the Peroxydasic activity is recorded as 348 ΔDO/min/aMF, the “Percent of peroxydasic activity relative to the product” value is recorded as 100% and the elicitor activity entry was “strongest elicitor activity”. Besides, in the assay with Grape plants [1], the “Percent of peroxydasic activity relative to the most active product” value is 81.66% and the Peroxydasic activity is 187.5 ΔDO/mn/g of fresh material. Moreover, in the assay on Grape plants [2], the Chitinasic activity was 45.4 ΔDO/mn/g of fresh material and the “Percent of chitinasic activity relative to the most active product” value worked out at 80.94%.

Take `NCCCC(=O)O` [GABA, γ-aminobutyric acid, reference compound]: in the assay on Zucchini plants, the Peroxydasic activity is on record as 49.1 ΔDO/min/aMF and the “Percent of peroxydasic activity relative to the product” value was determined as 14.11%. In the assay on tobacco plants, the “capacity to trigger the ARS” value was “totally inactive”.

On to H-Ala5-Ala-ol [Product 11], for which, in the assay with Zucchini plants, the Peroxydasic activity was 102 ΔDO/min/aMF and the “Percent of peroxydasic activity relative to the product” value is listed as 29.31%.

Take H-Ala4-Ala-ol [Product 10]: in the assay on Zucchini plants, the Peroxydasic activity is listed as 194 ΔDO/min/aMF and the “Percent of peroxydasic activity relative to the product” value is reported as 55.74%.
